# Measured values reported in patent US20050282205A1, “GLUT5 transporters expressed in cancer cells” (Xenoport, Inc., priority 2004, published 2005).
# Target: T1, Human GLUT5 (Homo sapiens, UniProt P22732)
# T1 construct: expressed in transfected cells; host or cells: Xenopus oocytes injected with in vitro transcribed GLUT5 cRNA
# T1 sequence (P22732 1-501): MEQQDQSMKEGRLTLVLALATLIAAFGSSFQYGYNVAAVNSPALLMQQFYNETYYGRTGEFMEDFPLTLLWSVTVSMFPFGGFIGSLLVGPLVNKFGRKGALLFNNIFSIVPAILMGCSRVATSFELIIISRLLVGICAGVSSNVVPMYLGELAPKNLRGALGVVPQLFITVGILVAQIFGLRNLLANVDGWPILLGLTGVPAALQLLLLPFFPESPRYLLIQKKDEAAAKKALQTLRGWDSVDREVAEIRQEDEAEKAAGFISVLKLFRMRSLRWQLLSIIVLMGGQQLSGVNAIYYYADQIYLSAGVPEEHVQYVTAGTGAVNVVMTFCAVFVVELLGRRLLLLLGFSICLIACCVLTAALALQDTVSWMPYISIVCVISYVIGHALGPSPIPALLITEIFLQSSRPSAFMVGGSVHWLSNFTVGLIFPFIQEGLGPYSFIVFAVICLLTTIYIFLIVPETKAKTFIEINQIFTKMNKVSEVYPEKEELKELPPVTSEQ
# Assay: 3H-fructose uptake in Xenopus oocytes expressing GLUT5
# Format: cell-based
# Details: Xenopus oocytes injected with GLUT5 cRNA, ND96 buffer, 3 minutes, scintillation counting (FIG. 2)
# Description: To assess transport function of a specific transporter protein, it can be desirable to clone the cDNA and express the protein in cells that have low endogenous transport activity. Human GLUT5 was cloned by PCR, fully sequenced, and subcloned into plasmids that can be used for expression in mammalian cells or Xenopus oocytes. […] For expression in Xenopus oocytes, in vitro GLUT5 cRNA was prepared and injected into defoliculated oocytes.
# Oocytes expressing GLUT5 or control oocytes not expressing GLUT5 were incubated in an oocyte ringers (ND96) buffer (90 mM NaCl, 10 mM HemiNa HEPES, 2 mM KCl, 1 mM MgCl, 1.8 mM CaCl2) containing 0.5% bovine serum albumin and 3H-fructose ([…]) for 3 minutes. Oocytes were washed and uptake of radiolabel quantified by scintillation counting.
structure (smiles),measurement,value
"O=C(CO)[C@@H](O)[C@H](O)[C@H](O)CO [^3H-fructose, fructose]",uptake of radiolabel into oocytes expressing GLUT5 versus noninjected controls,higher levels of ^3H-fructose uptake than noninjected controls
